Reference: publication PMC12632266, “A dual L-glucose/L-galactose catabolic pathway in Luteolibacter species strain LG18” (Journal of Bacteriology, 2025)

Columns and labels:
His6-LguH = test system: T1, His6-LguH; experiment: coupled LguE/GAPDH, NADH formation at […] nm; format: biochemical, Luteolibacter sp. LG18; conditions: 1 mM MgCl2, 100 mM potassium phosphate pH 7.0, 25°C
T1 construct: full-length ORF, N-terminal His6 (pET28a), E. coli BL21 Star (DE3)

His6-LguD (L-GnDH) = test system: T2, His6-LguD (L-GnDH); experiment: NAD+ reduction at […] nm; format: biochemical, Luteolibacter sp. LG18; conditions: 10 mM Tris-HCl pH 7.5, 25°C
T2 construct: full-length ORF, N-terminal His6 (pET28a), E. coli BL21 Star (DE3); native N-terminus MKTLVLREPG

His6-LguA (L-GDH) = target: T3, His6-LguA (L-GDH) (Luteolibacter sp. LG18, UniProt Z9K5S2U0J3); experiment: NADP+ reduction at […] nm; format: biochemical; conditions: 10 mM Tris-HCl pH 7.5, 25°C
T3 construct: full-length ORF, N-terminal His6 (pET28a), E. coli BL21 Star (DE3); native N-terminus METRKLGNTGLDVSV
T3 sequence (Z9K5S2U0J3 21-349): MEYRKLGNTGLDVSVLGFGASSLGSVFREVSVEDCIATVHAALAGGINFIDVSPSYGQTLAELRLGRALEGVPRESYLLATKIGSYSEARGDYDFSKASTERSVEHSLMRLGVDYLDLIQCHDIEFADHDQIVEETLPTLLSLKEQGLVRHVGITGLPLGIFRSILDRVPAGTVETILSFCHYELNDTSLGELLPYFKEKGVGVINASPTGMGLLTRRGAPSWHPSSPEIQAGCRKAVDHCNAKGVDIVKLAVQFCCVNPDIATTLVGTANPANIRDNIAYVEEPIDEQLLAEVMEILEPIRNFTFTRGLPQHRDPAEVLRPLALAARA

His6-LguE = test system: T4, His6-LguE; experiment: coupled LDH, NADH oxidation (pyruvate production); format: biochemical, Luteolibacter sp. LG18; conditions: 100 mM potassium phosphate pH 7.0, 25°C
T4 construct: full-length ORF, N-terminal His6 (pET28a), E. coli BL21 Star (DE3)
Excerpt: coupled LDH, NADH oxidation (pyruvate production) on His6-LguE

Nc1ncnc2c1ncn2[C@@H]1O[C@H](COP(=O)(O)OP(=O)(O)OP(=O)(O)O)[C@@H](O)[C@H]1O [ATP]
Km (His6-LguH; 5 mM KDG, phosphate donor): 55 ± 47 µM

O=C(O)[C@@H](O)[C@H](O)[C@@H](O)[C@@H](O)CO [L-gluconate]
Km (His6-LguD (L-GnDH); 1 mM NAD+): 4300 ± 340 µM

O=C(O)[C@@H](O)[C@H](O)[C@H](O)[C@@H](O)CO [L-galactonate]
Km (His6-LguD (L-GnDH); 1 mM NAD+): 2960 ± 230 µM

NC(=O)c1ccc[n+]([C@@H]2O[C@H](COP(=O)(O)OP(=O)(O)OC[C@H]3O[C@@H](n4cnc5c(N)ncnc54)[C@H](O)[C@@H]3O)[C@@H](O)[C@H]2O)c1 [NAD^+]
Km (His6-LguD (L-GnDH); 20 mM L-gluconate): 450 ± 30 µM

O=P(O)(O)OP(=O)(O)O [PPi]
Km (His6-LguH; 5 mM KDG, phosphate donor): 306 ± 63 µM

O=C(O)C(=O)C[C@H](O)[C@H](O)CO [KDG]
Km (His6-LguH; 10 mM PPi): 198 ± 12 µM

OC[C@@H]1OC(O)[C@@H](O)[C@H](O)[C@H]1O (stereo partly drawn) [L-glucose]
Km (His6-LguA (L-GDH); 1 mM NADP+): 7700 ± 490 µM

NC(=O)c1ccc[n+]([C@@H]2O[C@H](COP(=O)(O)OP(=O)(O)OC[C@H]3O[C@@H](n4cnc5c(N)ncnc54)[C@H](OP(=O)(O)O)[C@@H]3O)[C@@H](O)[C@H]2O)c1 [NADP^+]
Km (His6-LguA (L-GDH); 100 mM L-glucose): 79.3 µM

OC[C@@H]1OC(O)[C@@H](O)[C@H](O)[C@@H]1O (stereo partly drawn) [L-galactose]
Km (His6-LguA (L-GDH); 1 mM NADP+): 91.7 µM

O=C(O)C(=O)C[C@H](O)[C@H](O)COP(=O)(O)O [KDPG]
Km (His6-LguE): 137 ± 10 µM
